According to patent US12410208B2, “(2-acetamidyl)thio-beta-D-galactopyranoside derivatives” (Idorsia Pharmaceuticals Ltd, priority 2020, dated 2025):
Where two headings read alike, the source gives them in different places.

Tests used:
[1] = target: biotinylated human Gal-3 (hGal-3) (Homo sapiens, UniProt P17931); test: Competitive binding assay: biotinylated hGal-3 binding to microplate-adsorbed asialofetuin (ASF), spectrophotometric
Procedure, shortened: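 Serially diluted compounds competed with asialofetuin on the plate for biotinylated human Gal-3 during a 3 h incubation at 4° C. Streptavidin-peroxidase with ABTS gave the spectrophotometric signal. IC50 values were averaged over repeat runs.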

human Gal-1 (hGal-1) = human Gal-1 (hGal-1) (Homo sapiens, UniProt P09382); test: Competitive binding assay: biotinylated hGal-1 binding to microplate-adsorbed asialofetuin (ASF), spectrophotometric; settings: hGal-1 binding to asialofetuin; Table 15; R and S epimers of selected Examples also listed; read-out: IC50 (Galectin-1 inhibition)
Procedure, shortened: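 Spectrophotometric competition readout with ABTS after streptavidin-peroxidase (80 ng/mL, 1 h, 4 °C) detection of bound biotinylated hGal-1.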

[2] = Gal-3 inhibition, Table 5, read-out: IC50
[3] = Table 8, hGal-3, read-out: IC50 (Gal-3 inhibition)

biotinylated human Gal-3 (hGal-3), sequence (P17931 whole entry): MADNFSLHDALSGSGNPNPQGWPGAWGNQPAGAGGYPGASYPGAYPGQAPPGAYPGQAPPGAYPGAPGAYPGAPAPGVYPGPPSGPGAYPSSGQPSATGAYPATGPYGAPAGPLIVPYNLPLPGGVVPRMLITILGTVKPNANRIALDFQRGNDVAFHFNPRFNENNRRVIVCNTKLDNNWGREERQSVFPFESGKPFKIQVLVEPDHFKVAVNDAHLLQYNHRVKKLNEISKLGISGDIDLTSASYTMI
human Gal-1 (hGal-1), sequence (P09382 whole entry): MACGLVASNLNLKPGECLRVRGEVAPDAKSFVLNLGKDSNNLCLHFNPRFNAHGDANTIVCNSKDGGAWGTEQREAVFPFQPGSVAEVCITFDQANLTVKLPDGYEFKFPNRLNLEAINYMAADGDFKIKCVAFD

| SMILES | IC50 [1, 2] | IC50 (human Gal-1 (hGal-1)) | IC50 [1, 3] | IC50 ([1]; Table 11, hGal-3, read-out: IC50 (Gal-3 inhibition)) | IC50 ([1]; Gal-3 inhibition, Table 4, read-out: IC50) |
| --- | --- | --- | --- | --- | --- |
| CN(CC1(F)CCCC1)C(=O)[C@@H](S[C@@H]1O[C@H](CO)[C@H](O)[C@H](n2cc(-c3cc(F)c(F)c(F)c3)nn2)[C@H]1O)C1(O)CCC(F)(F)CC1 [Example 2.44.223S., (S)-2-(4,4-Difluoro-1-hydroxycyclohexyl)-2-(((2S,3R,4S,5R,6R)-3,5-dihydroxy-6-(hydroxymethyl)-4-(4-(3,4,5-trifluorophenyl)-1H-1,2,3-triazol-1-yl)tetrahydro-2H-pyran-2-yl)thio)-N-((1-fluorocyclopentyl)methyl)-N-methylacetamide] | 70 nM | 80 nM |  |  |  |
| CN(C(=O)[C@H](S[C@@H]1O[C@H](CO)[C@H](O)[C@H](n2cc(-c3cc(F)c(F)c(F)c3)nn2)[C@H]1O)C1(O)CCOCC1)C1COC1 [Example 2.41.235R., (R)-2-(((2S,3R,4S,5R,6R)-3,5-Dihydroxy-6-(hydroxymethyl)-4-(4-(3,4,5-trifluorophenyl)-1H-1,2,3-triazol-1-yl)tetrahydro-2H-pyran-2-yl)thio)-2-(4-hydroxytetrahydro-2H-pyran-4-yl)-N-methyl-N-(oxetan-3-yl)acetamide] | 2400 nM | 6540 nM |  |  |  |
| CCN(C)C(=O)C(S[C@@H]1O[C@H](CO)[C@H](O)[C@H](n2cc(-c3cc(F)c(F)c(F)c3)nn2)[C@H]1O)C1(O)CCN(S(=O)(=O)C2CC2)CC1 (stereo partly drawn) [Example 2.51.203., 2-(1-(Cyclopropylsulfonyl)-4-hydroxypiperidin-4-yl)-2-(((2S,3R,4S,5R,6R)-3,5-dihydroxy-6-(hydroxymethyl)-4-(4-(3,4,5-trifluorophenyl)-1H-1,2,3-triazol-1-yl)tetrahydro-2H-pyran-2-yl)thio)-N-ethyl-N-methylacetamide] |  | 70 nM | 30 nM |  |  |
| CCN(C)C(=O)C(S[C@@H]1O[C@H](CO)[C@H](O)[C@H](n2cc(-c3cc(C)cc(C#N)c3)nn2)[C@H]1O)C1(O)CCOCC1 (stereo partly drawn) [Example 19.41.203., 2-(((2S,3R,4S,5R,6R)-4-(4-(3-Cyano-5-methylphenyl)-1H-1,2,3-triazol-1-yl)-3,5-dihydroxy-6-(hydroxymethyl)tetrahydro-2H-pyran-2-yl)thio)-N-ethyl-2-(4-hydroxytetrahydro-2H-pyran-4-yl)-N-methylacetamide] |  | 150 nM |  | 150 nM |  |
| CN(C)C(=O)C(S[C@@H]1O[C@H](CO)[C@H](O)[C@H](n2cc(-c3cc(F)c(F)c(F)c3)nn2)[C@H]1O)C1(O)CCOCC1 (stereo partly drawn) [Example 2.41.201., 2-(((2S,3R,4S,5R,6R)-3,5-Dihydroxy-6-(hydroxymethyl)-4-(4-(3,4,5-trifluorophenyl)-1H-1,2,3-triazol-1-yl)tetrahydro-2H-pyran-2-yl)thio)-2-(4-hydroxytetrahydro-2H-pyran-4-yl)-N,N-dimethylacetamide] |  | 1800 nM |  |  | 180 nM |
| O=C([C@H](S[C@@H]1O[C@H](CO)[C@H](O)[C@H](n2cc(-c3cc(F)c(F)c(F)c3)nn2)[C@H]1O)C1(O)CCC1)N1CCC1 [Example 2.34.206R., (R)-1-(Azetidin-1-yl)-2-(((2S,3R,4S,5R,6R)-3,5-dihydroxy-6-(hydroxymethyl)-4-(4-(3,4,5-trifluorophenyl)-1H-1,2,3-triazol-1-yl)tetrahydro-2H-pyran-2-yl)thio)-2-(1-hydroxycyclobutyl)ethan-1-one] | 1800 nM | 6910 nM |  |  |  |
| CCN(C)C(=O)C(S[C@@H]1O[C@H](CO)[C@H](O)[C@H](n2cc(-c3cc(F)c(F)c(F)c3)nn2)[C@H]1O)C1(O)CCN(C(=O)NC2CC2)CC1 (stereo partly drawn) [Example 2.49.203., N-Cyclopropyl-4-(1-(((2S,3R,4S,5R,6R)-3,5-dihydroxy-6-(hydroxymethyl)-4-(4-(3,4,5-trifluorophenyl)-1H-1,2,3-triazol-1-yl)tetrahydro-2H-pyran-2-yl)thio)-2-(ethyl(methyl)amino)-2-oxoethyl)-4-hydroxypiperidine-1-carboxamide] |  | 70 nM | 50 nM |  |  |
